As a reminder, the Ki is the equilibrium dissociation constant of an inhibitor or competing ligand from its target. A low value points to tighter binding.

Molecules are shown by their SMILES.

The target of experiment [1] is kappa opioid receptors (KOR) (Homo sapiens, UniProt P41145). The experiment in a line: PDSP radioligand binding at KOR. To be noted: for inhibition at 10 µM: 1.5 h, at 10,000 nM, N = 5, [3H]-U69593 0.83 nM, read-out: Primary Binding %KOR. An excerpt: (§1) Opioid receptors are a family of inhibitory G-coupled protein receptors where opioids act as the ligand. The kappa opioid receptors (KOR), µ and δ opioid receptors (MOR and DOR), and nociception opioid receptor (NOP) fall under the family of opioids receptors. It has been reported that oxadiazole imidazodiazepines can mediate analgesic and anti-inflammatory properties mediated also by the κ opioid receptor (KOR). The binding at KOR is usually silent. The affinities of the test compounds for KOR, DOR, and MOR were determined using radioligand binding assays at a screening concentration of 10,000 nM in collaboration with the National Institute of Mental Health’s Psychoactive Drug Screening Program (PDSP), as mentioned before. Concentration-dependent experiments were conducted to determine Ki values for the compounds that exceeded more than 50% radioligand displacement in primary binding assays.
(§2) The NIMH PDSP assay protocol book [https://kidbdev.med.unc.edu/databases/PDSP%20Protocols%20II%202013-03-28.pdf accessed on 23 April 2023]. describes the protocols for primary and secondary radio-ligand binding assays. These assays were carried out in a final volume of 125 µL per well in the appropriate binding buffer.
(§3) The binding of a ligand to a receptor, ion channel, or transporter was determined in the […] of 10 µM of the appropriate reference compound. […] Plates were incubated in the dark for 90 min at rt, and the reactions were stopped by vacuum filtration onto 0.3% polyethyleneimine (PEI) soaked 96-well filter mats using a 96-well Filtermateharvester. This was followed by three washes with cold PBS buffer. Radioactivity was then counted on a Microbeta counter. Nonlinear regression was used to analyze the data with N = 6 replicates.

The target of a further experiment is T1, MOR (Homo sapiens, UniProt P35372).
T1 construct: purchased NIMH Psychoactive Drug Screening Program (PDSP)
The experiment can be described thus: PDSP radioligand binding at MOR. To be noted: 1.5 h; at 10,000 nM; N = 5; [3H]-DAMGO 1.20 nM; read-out: Primary Binding %MOR.
Text: as §1, §2, §3

The target in a further experiment is T2, DOR (Homo sapiens, UniProt P41143).
T2 construct: purchased NIMH Psychoactive Drug Screening Program (PDSP)
The experiment can be described thus: PDSP radioligand binding at DOR. The settings on record: at 10,000 nM; N = 5; [3H]-DADLE 2.69 nM; read-out: Primary Binding %DOR.
Text: as §1, §2, §3

Details of experiment [2]: method as in PMID 35266641, PMID 36712569, doi:10.1016/j.euroneuro.2019.09.268. The settings on record: autism, antipsychotic activity, cognitive disorders; cited from earlier work.

kappa opioid receptors (KOR), sequence (P41145 whole entry): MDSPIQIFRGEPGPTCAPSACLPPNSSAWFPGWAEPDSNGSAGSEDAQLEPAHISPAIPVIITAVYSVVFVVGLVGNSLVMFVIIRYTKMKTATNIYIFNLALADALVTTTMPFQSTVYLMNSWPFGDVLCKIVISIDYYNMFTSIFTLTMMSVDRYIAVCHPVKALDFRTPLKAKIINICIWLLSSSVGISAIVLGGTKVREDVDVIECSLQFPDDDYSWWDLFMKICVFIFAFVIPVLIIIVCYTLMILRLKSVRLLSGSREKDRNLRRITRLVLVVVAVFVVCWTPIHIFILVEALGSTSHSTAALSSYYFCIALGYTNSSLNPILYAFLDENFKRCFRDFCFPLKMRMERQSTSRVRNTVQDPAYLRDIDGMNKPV
T1 sequence (P35372 whole entry): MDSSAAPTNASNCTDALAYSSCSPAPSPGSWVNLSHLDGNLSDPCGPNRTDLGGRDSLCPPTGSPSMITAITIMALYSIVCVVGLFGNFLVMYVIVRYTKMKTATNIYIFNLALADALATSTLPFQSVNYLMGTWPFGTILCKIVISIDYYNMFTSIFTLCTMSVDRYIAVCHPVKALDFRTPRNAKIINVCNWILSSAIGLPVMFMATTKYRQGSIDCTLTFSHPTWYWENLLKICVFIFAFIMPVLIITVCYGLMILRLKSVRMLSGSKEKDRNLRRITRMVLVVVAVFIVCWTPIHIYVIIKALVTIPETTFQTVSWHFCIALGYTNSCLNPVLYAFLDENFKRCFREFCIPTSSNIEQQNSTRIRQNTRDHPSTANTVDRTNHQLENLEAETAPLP
T2 sequence (P41143 whole entry): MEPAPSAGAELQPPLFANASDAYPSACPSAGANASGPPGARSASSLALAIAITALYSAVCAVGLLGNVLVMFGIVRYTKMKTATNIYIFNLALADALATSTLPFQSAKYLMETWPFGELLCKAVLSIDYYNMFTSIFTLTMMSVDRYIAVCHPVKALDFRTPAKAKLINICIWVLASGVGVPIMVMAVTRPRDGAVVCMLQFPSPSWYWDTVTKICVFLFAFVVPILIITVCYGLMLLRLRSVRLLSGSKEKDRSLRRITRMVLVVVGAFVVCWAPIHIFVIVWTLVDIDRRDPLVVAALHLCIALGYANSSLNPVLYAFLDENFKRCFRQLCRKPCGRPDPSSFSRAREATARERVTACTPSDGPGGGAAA

The compound `C[C@H]1N=C(c2ccccc2F)c2cc(Cl)ccc2-n2cnc(C(=O)N(C)C)c21` [Compound 32, (R)-8-Chloro-6-(2′-fluorophenyl)-N,N,4-trimethyl-4H-benzo[f]imidazo[1,5-a][1,4]diazepine-3-carboxamide] registered an inhibitory constant (Ki) in experiment [1] of 731 ± 238 nM. Further, the inhibition at 10 µM in experiment [1] is 81.4 ± 7.52%; on MOR it was 11.2 ± 5.47%; on DOR, 14.4 ± 7.98%.
In experiment [1], `CCc1noc(-c2ncn3c2[C@@H](C)N=C(c2ccccc2F)c2cc(C4CC4)ccc2-3)n1` [Compound 47] showed an inhibition constant Ki of 248 ± 22.6 nM. Besides, the values for the inhibition at 10 µM (in experiment [1]; at MOR; at DOR) were 91.3 ± 3.06%, 25.1 ± 12.8% and 67.3 ± 7.84%, respectively.
As to `C#Cc1ccc2c(c1)C(c1ccccc1F)=N[C@H](C)c1c(C(=O)NC)ncn1-2` [MP-III-022], the “activity in psychiatric disorders” value in experiment [2] is given as “active in low doses”.

Values taken from paper PMC10303271, “Synthesis and Receptor Binding Studies of α5 GABAAR Selective Novel Imidazodiazepines Targeted for Psychiatric and Cognitive Disorders” (Molecules, 2023).
